# Reference: article PMC9144282 (Viruses, 2022)
# Read-outs that look alike come from different tables or passages of the source. Marks after values point to notes of the source that are not given here.
# Assays:
# G-CSF = test: xMAP inflammation biomarkers in HEp-2 cells; format: cell-based, human; conditions: 2 days posttreatment, concentrations below CC50
# MS2 Phage = test: RNase activity by RT^2-PCR, whole MS2 phage; format: biochemical, bacteriophage MS2; conditions: 0.1 mg/mL
# IL-5 = test: xMAP inflammation biomarkers in HEp-2 cells; format: cell-based, human; conditions: 2 days posttreatment, concentrations below CC50
# IL-12(p70) = test: xMAP inflammation biomarkers in HEp-2 cells; format: cell-based, human; conditions: 2 days posttreatment, concentrations below CC50
# [1] = test system: human cell lines (HEp-2, L41, HT-29); test: MTT cytotoxicity test, three human cell lines taken together; format: cell-based
# IL-13 = test: xMAP inflammation biomarkers in HEp-2 cells; format: cell-based, human; conditions: 2 days posttreatment, concentrations below CC50
# IL-7 = test: xMAP inflammation biomarkers in HEp-2 cells; format: cell-based, human; conditions: 2 days posttreatment, concentrations below CC50
# IL-10 = test: xMAP inflammation biomarkers in HEp-2 cells; format: cell-based, human; conditions: 2 days posttreatment, concentrations below CC50
# IL-8 = test: xMAP inflammation biomarkers in HEp-2 cells; format: cell-based, human; conditions: 2 days posttreatment, concentrations below CC50
# [2] = biological target: SARS-CoV-2 recombinant antigen N (Severe acute respiratory syndrome coronavirus 2, UniProt P0DTC9)
# GM-CSF = test: xMAP inflammation biomarkers in HEp-2 cells; format: cell-based, human; conditions: 2 days posttreatment, concentrations below CC50
# TNFα = test: xMAP inflammation biomarkers in HEp-2 cells; format: cell-based, human; conditions: 2 days posttreatment, concentrations below CC50
# HT-29 [3] = test system: HT-29
# IL-6 = test: xMAP inflammation biomarkers in HEp-2 cells; format: cell-based, human; conditions: 2 days posttreatment, concentrations below CC50
# HEp-2 = test: MTT cytotoxicity test, HEp-2 cells; conditions: HEp-2, MTT; concentration of the studied substance
# IL-1β = test: xMAP inflammation biomarkers in HEp-2 cells; format: cell-based, human; conditions: two days after addition
# IL-17A = test: xMAP inflammation biomarkers in HEp-2 cells; format: cell-based, human; conditions: 2 days posttreatment, concentrations below CC50
# MIP-1β = test: xMAP inflammation biomarkers in HEp-2 cells; format: cell-based, human; conditions: 2 days posttreatment, concentrations below CC50
# [4] = biological target: SARS-CoV-2 recombinant antigen S2 (Severe acute respiratory syndrome coronavirus 2, UniProt P0DTC2)
# HT-29 [5] = test: MTT cytotoxicity test, HT-29 cells; conditions: HT-29, MTT; concentration of the studied substance
# IL-4 = test: xMAP inflammation biomarkers in HEp-2 cells; format: cell-based, human; conditions: 2 days posttreatment, concentrations below CC50
# MCP-1 (MCAP) = test: xMAP inflammation biomarkers in HEp-2 cells; format: cell-based, human; conditions: 2 days posttreatment, concentrations below CC50
# MS2 RNA = test: RNase activity by RT^2-PCR, isolated MS2 RNA; format: biochemical, bacteriophage MS2; conditions: 0.1 mg/mL, 37 °C
# L41 [6] = test system: L41
# SARS-CoV-2 RNA = format: biochemical; conditions: 0.1 mg/mL, 37 °C
# IFNγ = test: xMAP inflammation biomarkers in HEp-2 cells; format: cell-based, human; conditions: 2 days posttreatment, concentrations below CC50
# L41 [7] = test: MTT cytotoxicity test, L41 cells; conditions: concentration of the studied substance
# IL-2 = test: xMAP inflammation biomarkers in HEp-2 cells; format: cell-based, human; conditions: 2 days posttreatment, concentrations below CC50
# [8] = test system: influenza A viral and cellular RNA; design: method as in earlier work; conditions: 2 mM, 1 h at 37 °C; cited from earlier work
# [9] = design: method as in earlier work; conditions: cited from earlier work
# [10] = Stability on storage / in media; format: physicochemical; conditions: storage in water solution
# [11] = Height of nanomaterials by AFM; format: physicochemical
# [12] = test system: SARS-CoV-2 RNA from COVID-19 Patient Blood; format: biochemical
compound,measurement,setting,value
O=[N+]([O-])[O-].[Ag+] [AgNO3],"G-CSF, ratio of MFI to control intact cells",G-CSF,1.12 ↑
same,Incubation required for complete damage of RNA inside the MS2 phage,MS2 Phage; 37 °C (data not shown),at least 1 h
same,"IL-5, ratio of MFI to control intact cells",IL-5,0.88
same,"IL-12(p70), ratio of MFI to control intact cells",IL-12(p70),0.70
same,Toxicity for three human cell lines,[1]; silver ions at 10 μg/mL,not toxic
same,"IL-13, ratio of MFI to control intact cells",IL-13,0.81
same,"IL-7, ratio of MFI to control intact cells",IL-7,0.70
same,"IL-10, ratio of MFI to control intact cells",IL-10,0.78
same,"IL-8, ratio of MFI to control intact cells",IL-8,3.71 ↑
same,Effect on binding of antigen N with polyclonal antibodies (ELISA),[2],inhibit binding
same,Lowest concentration for significant reproducible binding suppression,[2],100 µg/mL
same,"GM-CSF, ratio of MFI to control intact cells",GM-CSF,0.92
same,"TNFα, ratio of MFI to control intact cells",TNFα,1.15 ↑
same,"CC50, corresponding concentration of Ag+",HT-29 [3],100 (63.49 Ag+) μg/mL
same,"IL-6, ratio of MFI to control intact cells",IL-6,0.85
same,Cytotoxic concentration CC50,HEp-2,50 (31.75 Ag+) * μg/mL
same,IL1β production,IL-1β,up to 0.08 pg/mL
same,"IL-17A, ratio of MFI to control intact cells",IL-17A,0.97
same,"MIP-1β, ratio of MFI to control intact cells",MIP-1β,1.17 ↑
same,Effect on binding of antigen S2 with polyclonal antibodies (ELISA),[4],inhibit binding
same,Lowest concentration for significant reproducible binding suppression,"[4]; ELISA, antigen S2 with human polyclonal antibodies",100 µg/mL
same,Cytotoxic concentration CC50,HT-29 [5],100 (63.49 Ag+) μg/mL
same,"IL-4, ratio of MFI to control intact cells",IL-4,0.84
same,"MCP-1 (MCAP), ratio of MFI to control intact cells",MCP-1 (MCAP),1.19 ↑
same,Time for complete cleavage of isolated MS2 RNA,MS2 RNA,15 min
same,"CC50, corresponding concentration of Ag+",L41 [6],100 (63.49 Ag+) μg/mL
same,Incubation necessary for exhaustive hydrolysis of SARS-CoV-2 RNA,SARS-CoV-2 RNA,1 h
same,"ΔCt = Ct (sample) − Ct (control), SARS-CoV-2 RNA",SARS-CoV-2 RNA; RT^2-PCR,0.9
same,"IFNγ, ratio of MFI to control intact cells",IFNγ,1.03
same,Cytotoxic concentration CC50,L41 [7],100 (63.49 Ag+) μg/mL
same,"IL-2, ratio of MFI to control intact cells",IL-2,0.74
Li^+[Ag^+2Cys2^−(OH^−)2(NH3)2] [Ag-2S],"ΔCt = Ct (sample) − Ct (control), MS2 Phage","MS2 Phage; 37 °C, RT^2-PCR",7.5
same,CC50,[1]; over the human cell lines (Table 1),5.3 to 21.2 µg/mL
same,CC50,"[1]; range over the human cell lines, read-out: CC50",10 to 40 µM
same,Cleavage of total RNA,[8],Complete cleavage
same,Effect on binding of antigen N with polyclonal antibodies (ELISA),[2],did not significantly differ from the positive controls
same,Damage of cellular DNA and viral antigens after incubation,[9],neither cellular DNA nor viral antigens were damaged
same,Stability of structure and physico-chemical properties during storage,[10],up to 10 years
same,Cytotoxic concentration CC50,HT-29 [5],15.9 (3.24 Ag+) μg/mL
same,Particle height range (AFM),"[11]; height distribution histograms, includes protein shell for Ag NCs-IgG",1–2 nm
same,Most probable height (AFM),[11]; height histograms,~ 1 nm
same,Time for complete cleavage of isolated MS2 RNA,MS2 RNA,15 min
same,"ΔCt = Ct (sample) − Ct (control), SARS-CoV-2 RNA from COVID-19 Patient Blood",[12],1.6
same,Incubation necessary for exhaustive hydrolysis of SARS-CoV-2 RNA,SARS-CoV-2 RNA,1 h
same,Cytotoxic concentration CC50,L41 [7],21.2 (4.32 Ag+) μg/mL
